Reference: PubChem BioAssay AID248 (DTP/NCI, 2004)
Inconclusive results and toxic doses are left out. Cut-off read from the data, not from the text of the source: active = T/C of 150% or more; inactive = T/C below 125%.

System: L1210 leukemia ip in BDF1 mice, survival T/C
Experiment: NCI In Vivo Anticancer Drug Screen. Data for tumor model L1210 Leukemia (intraperitoneal) in B6D2F1 (BDF1) mice
Details: endpoint: mean survival time, higher = longer survival
In short: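 Antitumor effect is assessed in tumor-bearing animals. Survival in the compound arm is compared with a vehicle-dosed control arm and expressed as their quotient.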

[1] = dose: 50.0 mg/kg/injection, schedule: Q01DX009 (ip), vehicle: Klucel (hydroxypropylcellulose) (HPC)
[2] = dose: 100.0 mg/kg/injection, schedule: Q01DX009 (ip), vehicle: Klucel (hydroxypropylcellulose) (HPC)
[3] = dose: 100.0 mg/kg/injection, schedule: Q04DX003 (ip), vehicle: Klucel (hydroxypropylcellulose) (HPC)
[4] = dose: 200.0 mg/kg/injection, schedule: Q01DX009 (ip), vehicle: Klucel (hydroxypropylcellulose) (HPC)
[5] = dose: 200.0 mg/kg/injection, schedule: Q04DX003 (ip), vehicle: Klucel (hydroxypropylcellulose) (HPC)
[6] = dose: 25.0 mg/kg/injection, schedule: Q04DX003 (ip), vehicle: Klucel (hydroxypropylcellulose) (HPC)
[7] = dose: 100.0 mg/kg/injection, schedule: Q01DX009 (ip), vehicle: saline with Tween-80
[8] = dose: 200.0 mg/kg/injection, schedule: Q01DX009 (ip), vehicle: saline with Tween-80
[9] = dose: 400.0 mg/kg/injection, schedule: Q01DX009 (ip), vehicle: saline with Tween-80
[10] = dose: 400.0 mg/kg/injection, schedule: Q04DX003 (ip), vehicle: Klucel (hydroxypropylcellulose) (HPC)

Measured: T/C

Cc1ccc(NC(=S)N2CCC(CCCC3CCN(C(=S)Nc4ccc(C)cc4C)CC3)CC2)c(C)c1
inactive: [1] 98 % of control | [2] 107 % of control | [3] 97 % of control | [4] 95 % of control | [5] 95 % of control

c1ccc(-c2ccc([Si](c3ccc(-c4ccccc4)cc3)(c3ccc(-c4ccccc4)cc3)c3ccc(-c4ccccc4)cc3)cc2)cc1
inactive: dose: 12.5 mg/kg/injection, schedule: Q01DX009 (ip), vehicle: gum acacia 95 % of control | dose: 12.5 mg/kg/injection, schedule: Q04DX003 (ip), vehicle: gum acacia 106 % of control | dose: 25.0 mg/kg/injection, schedule: Q01DX009 (ip), vehicle: gum acacia 100 % of control | dose: 25.0 mg/kg/injection, schedule: Q04DX003 (ip), vehicle: gum acacia 95 % of control | dose: 50.0 mg/kg/injection, schedule: Q01DX009 (ip), vehicle: gum acacia 86 % of control | dose: 50.0 mg/kg/injection, schedule: Q04DX003 (ip), vehicle: gum acacia 92 % of control

[Cl][Pt+2][Cl].[NH-]C1CCC1.[NH-]C1CCC1
inactive: dose: 1.0 mg/kg/injection, schedule: Q01DX001 (ip), vehicle: saline with Tween-80 95 % of control | dose: 1.0 mg/kg/injection, schedule: Q01DX009 (ip), vehicle: saline with Tween-80 108 % of control | dose: 2.0 mg/kg/injection, schedule: Q01DX001 (ip), vehicle: saline with Tween-80 98 % of control | dose: 2.0 mg/kg/injection, schedule: Q01DX009 (ip), vehicle: saline with Tween-80 115 % of control | dose: 4.0 mg/kg/injection, schedule: Q01DX001 (ip), vehicle: saline with Tween-80 109 % of control | dose: 5.0 mg/kg/injection, schedule: Q04DX003 (ip), vehicle: saline 110 % of control | dose: 6.25 mg/kg/injection, schedule: Q04DX003 (ip), vehicle: Klucel (hydroxypropylcellulose) (HPC) 103 % of control | dose: 6.25 mg/kg/injection, schedule: Q04DX003 (ip), vehicle: saline with Tween-80 116 % of control | dose: 10.0 mg/kg/injection, schedule: Q04DX003 (ip), vehicle: saline 123 % of control | dose: 12.5 mg/kg/injection, schedule: Q04DX003 (ip), vehicle: Klucel (hydroxypropylcellulose) (HPC) 106 % of control | [6] 110 % of control | dose: 32.0 mg/kg/injection, schedule: Q01DX009 (ip), vehicle: saline with Tween-80 95 % of control | dose: 64.0 mg/kg/injection, schedule: Q01DX001 (ip), vehicle: saline with Tween-80 118 % of control | dose: 80.0 mg/kg/injection, schedule: Q04DX003 (ip), vehicle: saline 110 % of control
active: dose: 8.0 mg/kg/injection, schedule: Q01DX009 (ip), vehicle: saline with Tween-80 157 % of control | dose: 16.0 mg/kg/injection, schedule: Q01DX009 (ip), vehicle: saline with Tween-80 214 % of control | dose: 32.0 mg/kg/injection, schedule: Q01DX001 (ip), vehicle: saline with Tween-80 154 % of control | dose: 40.0 mg/kg/injection, schedule: Q04DX003 (ip), vehicle: saline 152 % of control | dose: 50.0 mg/kg/injection, schedule: Q04DX003 (ip), vehicle: saline with Tween-80 195 % of control | dose: 100.0 mg/kg/injection, schedule: Q04DX003 (ip), vehicle: saline with Tween-80 154 % of control

COc1ccc(Cl)cc1NC(=O)Nc1cccc(C(C)=O)c1
inactive: [2] 102 % of control | [4] 93 % of control | dose: 400.0 mg/kg/injection, schedule: Q01DX009 (ip), vehicle: Klucel (hydroxypropylcellulose) (HPC) 90 % of control

CCc1c(O)nc2ccccn2c1=O
inactive: dose: 100.0 mg/kg/injection, schedule: Q01DX001 (ip), vehicle: carboxymethylcellulose (CMC) 98 % of control | dose: 200.0 mg/kg/injection, schedule: Q01DX001 (ip), vehicle: carboxymethylcellulose (CMC) 109 % of control | dose: 400.0 mg/kg/injection, schedule: Q01DX001 (ip), vehicle: carboxymethylcellulose (CMC) 113 % of control

OCCNc1ccc(I)cc1
inactive: [7] 90 % of control | [8] 92 % of control | [9] 87 % of control

CCCCCCCCCCCCCCOc1ccc(C=O)cc1OC
inactive: [3] 96 % of control | [5] 93 % of control | [10] 91 % of control

CC(C)C1=CC23CCC4C(C)(C(=O)O)CCCC4(C)C2CC1C1C(=O)OC(=O)C13 (centres undefined)
inactive: dose: 25.0 mg/kg/injection, schedule: Q01DX009 (ip), vehicle: Klucel (hydroxypropylcellulose) (HPC) 106 % of control | [6] 103 % of control | [1] 102 % of control | dose: 50.0 mg/kg/injection, schedule: Q04DX003 (ip), vehicle: Klucel (hydroxypropylcellulose) (HPC) 101 % of control | [2] 102 % of control | [3] 95 % of control | [4] 91 % of control

COc1cc2c(c3oc(=O)ccc13)C=CC(C)(C)O2
inactive: [3] 102 % of control | [5] 107 % of control | [10] 94 % of control

CCOC(=O)CNC(=O)OCCOc1ccccc1Cl
inactive: [7] 94 % of control | [8] 98 % of control | [9] 100 % of control

COc1cc(C)c(/C=N/NC(=O)c2ccncc2)cc1C
inactive: dose: 100.0 mg/kg/injection, schedule: Q04DX002 (ip), vehicle: carboxymethylcellulose (CMC) 103 % of control | dose: 200.0 mg/kg/injection, schedule: Q04DX002 (ip), vehicle: carboxymethylcellulose (CMC) 96 % of control | dose: 400.0 mg/kg/injection, schedule: Q04DX002 (ip), vehicle: carboxymethylcellulose (CMC) 92 % of control

O=C(O)/C=C/C(=O)OCCO
inactive: dose: 75.0 mg/kg/injection, schedule: Q01DX001 (ip), vehicle: carboxymethylcellulose (CMC) 91 % of control | dose: 150.0 mg/kg/injection, schedule: Q01DX001 (ip), vehicle: carboxymethylcellulose (CMC) 86 % of control

O=C(O)C1CC=CCC1C(=O)Nc1cccc(O)c1 (centres undefined)
inactive: dose: 100.0 mg/kg/injection, schedule: Q04DX002 (ip), vehicle: Klucel (hydroxypropylcellulose) (HPC) 99 % of control | dose: 200.0 mg/kg/injection, schedule: Q04DX002 (ip), vehicle: Klucel (hydroxypropylcellulose) (HPC) 105 % of control | dose: 400.0 mg/kg/injection, schedule: Q04DX002 (ip), vehicle: Klucel (hydroxypropylcellulose) (HPC) 99 % of control

Nc1ncnc(N)c1NC(=O)C1CCCCC1
inactive: dose: 25.0 mg/kg/injection, schedule: Q01DX001 (ip), vehicle: Klucel (hydroxypropylcellulose) (HPC) 101 % of control | dose: 50.0 mg/kg/injection, schedule: Q01DX001 (ip), vehicle: Klucel (hydroxypropylcellulose) (HPC) 101 % of control

CN=C(N)c1ccc(NC(=O)c2ccc(C(=O)Nc3ccc(C(N)=NC)cc3)c(N)c2)cc1
active: dose: 1.75 mg/kg/injection, schedule: Q01DX Z (ip), vehicle: water 154 % of control | dose: 2.0 mg/kg/injection, schedule: Q01DX Z (ip), vehicle: carboxymethylcellulose (CMC) 189 % of control | dose: 4.0 mg/kg/injection, schedule: Q01DX Z (ip), vehicle: carboxymethylcellulose (CMC) 218 % of control | dose: 6.0 mg/kg/injection, schedule: Q01DX Z (ip), vehicle: carboxymethylcellulose (CMC) 184 % of control | dose: 8.0 mg/kg/injection, schedule: Q01DX Z (ip), vehicle: carboxymethylcellulose (CMC) 170 % of control
inactive: dose: 0.37 mg/kg/injection, schedule: Q01DX Z (ip), vehicle: water 104 % of control | dose: 0.75 mg/kg/injection, schedule: Q01DX Z (ip), vehicle: water 121 % of control | dose: 1.5 mg/kg/injection, schedule: Q01DX Z (ip), vehicle: water 123 % of control | dose: 6.7 mg/kg/injection, schedule: Q01DX001 (sc), vehicle: water 110 % of control | dose: 10.0 mg/kg/injection, schedule: Q01DX001 (sc), vehicle: water 107 % of control | dose: 10.0 mg/kg/injection, schedule: Q01DX Z (ip), vehicle: carboxymethylcellulose (CMC) 107 % of control | dose: 12.0 mg/kg/injection, schedule: Q01DX Z (ip), vehicle: carboxymethylcellulose (CMC) 96 % of control | dose: 14.0 mg/kg/injection, schedule: Q01DX Z (ip), vehicle: carboxymethylcellulose (CMC) 88 % of control | dose: 15.0 mg/kg/injection, schedule: Q01DX001 (sc), vehicle: water 119 % of control | dose: 25.0 mg/kg/injection, schedule: Q01DX Z (oral), vehicle: water 110 % of control | dose: 50.0 mg/kg/injection, schedule: Q01DX Z (oral), vehicle: water 100 % of control | dose: 100.0 mg/kg/injection, schedule: Q01DX Z (oral), vehicle: water 97 % of control | dose: 200.0 mg/kg/injection, schedule: Q01DX Z (oral), vehicle: water 110 % of control
